The values that follow come from patent US6214816A, “Heterocyclic compounds” (Novo Nordisk A/S, priority 1998, dated 2001).

Molecules are shown by their SMILES. Structures can show the parent of a compound that is named as a salt.

In the test the test system is histamine induced paw oedema. The experiment in a line: Histamine induced paw oedema. It is filed as in vivo, rat (male Sprague-Dawley). The note with it: ip, intraperitoneally 15 minutes before the anaesthetics, paw swelling 20 minutes after histamine, rat. How it is done:
Compounds of formula I may be used to treat all painful, hyperalgesic and/or inflammatory conditions in which C-fibres play a pathophysiological role by eliciting neurogenic pain or inflammation, i.e.: The rat histamine paw oedema test was performed essentially as described by Amann et al. (Europ. J. Pharmacol. 279, 227-231, 1995). In brief 250-300 g male Sprague-Dawley rats were anaesthetized with pentobarbital sodium, and placed on a 32 degree Celsius heated table. Ten minutes later histamine (50 micoliter, 3 mg/ml) was injected in the right hind paw and 20 minutes hereafter the paw swelling was determined by water plethysmography (Ugo Basile). Test compounds were administered intraperitoneally at 15 minutes before the anaesthetics.

As to `O=C(O)CCN1CCC(CN2c3ccccc3CCc3ccccc32)C1` (stereo not shown) [Example 1, 3-(3-(10,11-Dihydro-5H-dibenzo[b,f]azepin-5-ylmethyl)-pyrrolidin-1-yl)-propionic acid hydrochloride], the inhibition (in general, the change of the read-out against control, counted positive when it falls) at 1 mg/kg turned out to be 56%.
